Laboratory results reported in ChEMBL document CHEMBL3779839, “Identification of Novel GPR55 Modulators Using Cell-Impedance-Based Label-Free Technology” (J Med Chem, 2016).
The source made the active and inactive calls. The rule behind the calls is not given here.

Tests used:
[1] = target: T1, G-protein coupled receptor 55 (Homo sapiens, UniProt Q9Y2T6); experiment: Agonist activity at recombinant human GPR55 expressed in HEK293 cells after 5 mins by xCELLigence assay; assay type: cell-based
Cannabinoid receptor 1 = Cannabinoid receptor 1 (Homo sapiens, UniProt P21554); experiment: Displacement of [3H]CP55940 from human CB1 receptor expressed in HEK293 EBNA cells after 90 mins by liquid scintillation spectrophotometer; assay type: cell-based
Cannabinoid receptor 2 [2] = target: T2, Cannabinoid receptor 2 (Homo sapiens, UniProt P34972); experiment: Displacement of [3H]CP55940 from human CB2 receptor expressed in HEK293 EBNA cells after 90 mins by liquid scintillation spectrophotometer; assay type: cell-based
[3] = target: T1, G-protein coupled receptor 55; experiment: Antagonist activity at recombinant human GPR55 expressed in HEK293 cells assessed as LPI mediated receptor activation by measuring LPI Emax at 1 uM after 5 mins by xCELLigence assay (reference value: 99 to 104%); assay type: cell-based
[4] = target: T1, G-protein coupled receptor 55; experiment: Agonist activity at recombinant human GPR55 expressed in HEK293 cells at 1 uM after 5 mins by xCELLigence assay relative to LPI; assay type: cell-based
HEK293 [5] = experiment: Effect on non-transfected HEK293 cells at 1 nM to 10 uM after 5 mins by xCELLigence assay; assay type: functional, cell-based; settings: Homo sapiens
[6] = target: T1, G-protein coupled receptor 55; experiment: Partial agonist activity at recombinant human GPR55 expressed in HEK293 cells at 1 uM after 5 mins by xCELLigence assay relative to LPI; assay type: cell-based
Cannabinoid receptor 2 [7] = target: T2, Cannabinoid receptor 2; experiment: Displacement of [3H]CP55940 from human CB2 receptor expressed in HEK293 EBNA cells at 40 uM after 90 mins by liquid scintillation spectrophotometer; assay type: cell-based
HEK293 [8] = experiment: Effect on non-transfected HEK293 cells at 10 uM after 5 mins by xCELLigence assay; assay type: functional, cell-based; settings: Homo sapiens
[9] = target: T1, G-protein coupled receptor 55; experiment: Partial agonist activity at recombinant human GPR55 expressed in HEK293 cells after 5 mins by xCELLigence assay; assay type: cell-based
Cannabinoid receptor 2 [10] = target: T2, Cannabinoid receptor 2; experiment: Agonist activity at human CB2 receptor expressed in CHO cells after 30 mins by [35S]-GTPgammaS binding assay relative to control

T1 sequence (Q9Y2T6 whole entry): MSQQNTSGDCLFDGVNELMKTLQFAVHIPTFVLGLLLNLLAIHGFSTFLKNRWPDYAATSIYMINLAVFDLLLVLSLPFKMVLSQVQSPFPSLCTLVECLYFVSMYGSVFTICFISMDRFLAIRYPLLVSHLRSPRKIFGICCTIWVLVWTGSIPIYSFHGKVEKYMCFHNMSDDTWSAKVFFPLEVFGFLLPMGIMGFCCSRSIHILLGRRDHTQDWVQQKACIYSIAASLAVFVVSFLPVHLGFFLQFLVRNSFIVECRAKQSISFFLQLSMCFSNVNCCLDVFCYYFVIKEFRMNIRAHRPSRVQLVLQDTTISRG
T2 sequence (P34972 whole entry): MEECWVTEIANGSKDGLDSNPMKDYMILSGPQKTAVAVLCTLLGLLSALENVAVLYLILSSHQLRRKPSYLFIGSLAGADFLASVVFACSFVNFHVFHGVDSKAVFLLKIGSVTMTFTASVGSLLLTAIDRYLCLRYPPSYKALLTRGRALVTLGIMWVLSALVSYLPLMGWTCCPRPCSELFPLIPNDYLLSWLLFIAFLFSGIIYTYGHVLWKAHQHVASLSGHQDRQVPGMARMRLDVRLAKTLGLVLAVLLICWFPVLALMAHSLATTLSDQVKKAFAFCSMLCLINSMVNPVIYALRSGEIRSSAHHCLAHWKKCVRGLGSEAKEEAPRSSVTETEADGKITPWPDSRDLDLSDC
Sequence of Cannabinoid receptor 1 (P21554 whole entry): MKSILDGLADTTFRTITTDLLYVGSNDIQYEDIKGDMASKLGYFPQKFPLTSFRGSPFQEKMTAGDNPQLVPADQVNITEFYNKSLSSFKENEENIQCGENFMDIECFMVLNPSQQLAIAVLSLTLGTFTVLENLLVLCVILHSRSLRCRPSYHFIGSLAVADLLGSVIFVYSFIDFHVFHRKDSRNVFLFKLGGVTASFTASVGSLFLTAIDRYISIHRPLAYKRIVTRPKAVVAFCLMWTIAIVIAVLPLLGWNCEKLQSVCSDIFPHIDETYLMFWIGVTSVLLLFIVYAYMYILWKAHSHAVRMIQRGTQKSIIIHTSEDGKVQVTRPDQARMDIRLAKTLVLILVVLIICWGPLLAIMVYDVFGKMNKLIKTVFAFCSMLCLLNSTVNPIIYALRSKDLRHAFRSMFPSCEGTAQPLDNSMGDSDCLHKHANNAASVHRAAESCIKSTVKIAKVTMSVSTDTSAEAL

Structure (SMILES) | Activity [1] | Ki (Cannabinoid receptor 1) [µM] | Ki (Cannabinoid receptor 2 [2]) [µM] | Emax [3] [%] | Emax [4] [%] | Activity (HEK293 [5]) | Emax [6] [%] | inhibition (Cannabinoid receptor 2 [7]) [%] | Activity (HEK293 [8]) | EC50 [1] [µM] | EC50 [9] [µM] | EC50 (Cannabinoid receptor 2 [10]) [µM]
COc1ccc2c(c1)OC(C)(C)c1cnn(CNC(=O)CN3CCN(c4cccc(C)c4C)CC3)c1-2 | inactive | > 40 | > 40 |  |  |  |  |  |  |  |  | 
COc1ccc2c(c1)OC(C)(C)c1cnn(CCN3CCN(C(=O)c4ccco4)CC3)c1-2 |  | > 40 |  | 97 | < 25 | inactive |  |  |  |  |  | 
COc1ccc2c(c1)OC(C)(C)c1cn(CCN3CCN(C(=O)COc4ccccc4)CC3)nc1-2 |  | > 40 | > 40 | 100 |  | inactive | 52 |  |  |  |  | 
COc1ccc2c(c1)OC(C)(C)c1cnn(CCN3CCN(C(=O)c4ccccc4)CC3)c1-2 |  | > 40 |  |  |  |  |  |  |  |  |  | 
COc1ccc2c(c1)OC(C)(C)c1cn(CCN3CCN(C(=O)c4ccco4)CC3)nc1-2 |  | > 40 | 0.698 | 106 |  | inactive | 43 | 70 |  |  |  | 
CCCCCCCCCCCCCCCCCC(=O)OC[C@@H](O)COP(=O)(O)O[C@@H]1[C@H](O)[C@H](O)[C@@H](O)[C@H](O)[C@H]1O |  |  |  |  |  |  |  |  | Active | 0.00282 |  | 
COc1ccc(N2CCN(CC(=O)NCn3ncc4c3-c3ccc(OC)cc3OC4(C)C)CC2)cc1 | inactive | > 40 | > 40 | 80 | < 25 | inactive |  |  |  |  |  | 
COc1ccc2c(c1)OC(C)(C)c1cnn(CNC(=O)CN3CCN(c4ccccc4OC)CC3)c1-2 | inactive | > 40 | > 40 |  |  |  |  |  |  |  |  | 
COc1ccc2c(c1)OC(C)(C)c1cn(CCN3CCN(C(=O)C4CCCCC4)CC3)nc1-2 |  | > 40 | 0.523 | 99 |  | inactive | 47 | 70 |  |  |  | 
COc1ccc2c(c1)OC(C)(C)c1cn(CCN3CCN(C(=O)C4CCCO4)CC3)nc1-2 (stereo not drawn) |  | > 40 | 1.07 | 102 |  | inactive | 51 | 70 |  |  | 0.0004 | 
COc1ccc2c(c1)OC(C)(C)c1cn(CNC(=O)CN3CCN(c4cccc(C)c4C)CC3)nc1-2 | inactive | > 40 | > 40 | 102 | < 25 | inactive |  |  |  |  |  | 
COc1ccc2c(c1)OC(C)(C)c1cn(CCN3CCN(C(=O)c4cccs4)CC3)nc1-2 |  | > 40 | 0.0154 | 96 |  | inactive | 45 | 70 |  |  |  | 0.392
COc1ccc2c(c1)OC(C)(C)c1cn(CCN3CCN(C(=O)C(C)(C)C)CC3)nc1-2 |  | > 40 | 6.39 | 100 |  | inactive | 49 | 70 |  |  |  | 
COc1ccc2c(c1)OC(C)(C)c1cnn(CNC(=O)CN3CCN(c4ccccc4)CC3)c1-2 | inactive | > 40 | 4.92 | 97 | < 25 | inactive |  | 70 |  |  |  | 
COc1ccc2c(c1)OC(C)(C)c1cnn(CCN3CCN(C(=O)c4cccs4)CC3)c1-2 |  | > 40 |  | 99 | < 25 | inactive |  |  |  |  |  | 
COc1ccc2c(c1)OC(C)(C)c1cn(CNC(=O)CN3CCN(c4ccccc4)CC3)nc1-2 | inactive | > 40 | 1.58 | 94 | < 25 | inactive |  | 70 |  |  |  | 
COc1ccc2c(c1)OC(C)(C)c1cn(CCN3CCN(C(=O)c4ccccc4)CC3)nc1-2 |  | > 40 | 3.6 | 105 |  | inactive | 51 | 70 |  |  | 0.0006 | 
COc1ccc2c(c1)OC(C)(C)c1cn(CNC(=O)CN3CCN(c4ccccc4OC)CC3)nc1-2 |  | > 40 | > 40 | 90 |  | inactive | 51 |  |  |  | 0.00636 | 
